According to publication PMC8908490 (ACS Omega, 2022):
pIC50: −log10 of the molar value.

Key:
interleukin-1β = conditions: cell-based interleukin-1β assay; cited from earlier work
[1] = cited from earlier work
[2] = HPLC-based chemical stability at different pH; conditions: for chemical stability (in words): acidic conditions, pH 1, 37 °C
human NLRP3-NACHT domain = human NLRP3-NACHT domain (Homo sapiens, UniProt Q96P20); conditions: presence of ADP
Chain of human NLRP3-NACHT domain (Q96P20 220-536 limits assumed): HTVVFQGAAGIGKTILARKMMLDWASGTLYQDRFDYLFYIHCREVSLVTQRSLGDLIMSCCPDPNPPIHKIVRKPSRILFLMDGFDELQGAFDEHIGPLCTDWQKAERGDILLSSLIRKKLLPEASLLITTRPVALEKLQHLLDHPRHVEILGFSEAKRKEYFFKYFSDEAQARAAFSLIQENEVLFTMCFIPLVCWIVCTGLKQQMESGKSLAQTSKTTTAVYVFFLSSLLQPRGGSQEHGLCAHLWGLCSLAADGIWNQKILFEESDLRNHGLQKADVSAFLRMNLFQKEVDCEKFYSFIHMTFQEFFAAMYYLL

| SMILES | chemical stability (in words) [2] | further results |
| --- | --- | --- |
| CC(C)(O)c1coc(S(=O)(=O)NC(=O)Nc2c3c(cc4c2CCC4)CCC3)c1 [Compound 1, N-((1,2,3,5,6,7-Hexahydro-s-indacen-4-yl)carbamoyl)-4-(2-hydroxypropan-2-yl)furan-2-sulfonamide] | – | pIC50 (interleukin-1β): 8.12; plasma half-life [1]: 3.27 h |
| CC(C)(O)c1csc(S(=O)(=O)NC(=O)Nc2c3c(cc4c2CCC4)CCC3)c1 [Compound 2, N-((1,2,3,5,6,7-Hexahydro-s-indacen-4-yl)carbamoyl)-4-(2-hydroxypropan-2-yl)thiophene-2-sulfonamide] | similarly stable | – |
| O=C(Nc1c2c(cc3c1CCC3)CCC2)NS(=O)(=O)c1ccco1 [Compound 3, N-((1,2,3,5,6,7-Hexahydro-s-indacen-4-yl)carbamoyl)furan-2-sulfonamide] | unstable | – |
| O=C(Nc1c2c(cc3c1CCC3)CCC2)NS(=O)(=O)c1cccs1 [Compound 4, N-((1,2,3,5,6,7-Hexahydro-s-indacen-4-yl)carbamoyl)thiophene-2-sulfonamide] | – | fold shorter half-life than benzene analogue ([2]; pH 1, 4 versus 8, 6 versus 9): 12 fold |

The next lines start with results.

| chemical stability (in words) [2] | SMILES | further results |
| --- | --- | --- |
| unstable | CC(C)S(=O)(=O)NC(=O)Nc1c2c(cc3c1CCC3)CCC2 [Compound 5, N-((1,2,3,5,6,7-Hexahydro-s-indacen-4-yl)carbamoyl)propane-2-sulfonamide] | – |
| similarly unstable | O=C(Nc1c2c(cc3c1CCCC3)CCCC2)NS(=O)(=O)c1ccccc1 [Compound 7, N-((1,2,3,4,5,6,7,8-Octahydroanthracen-9-yl)carbamoyl)benzenesulfonamide] | NLRP3 binding by SPR (in words) (human NLRP3-NACHT domain): total loss of binding ability |
